Experiments:
Assay type in all cases: in vivo
[1] = tested on: velvetleaf (Abutilon theophrasti, ABUTH); test: Pre-emerge test, greenhouse herbicide activity screening; settings: rating scale 0-100, 14 days after application
Method in brief: (§1)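 Applied at 15–1000 g ai/ha from acetone in 187 l/ha spray volume. Post-emergence applications included 0.25% v/v non-ionic surfactant and reached plants sown 8–21 days before. Pre-emergence applications were incorporated by surface watering. Efficacy or crop damage was rated on a 0–100 scale after 14 days.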

[2] = tested on: barnyardgrass (Echinochloa crus-galli, ECHCG); test: as above; settings: rating scale 0-100, 14 days after application
Method in brief: as §1

[3] = tested on: ivyleaf morningglory (Ipomoea hederacea, IPOHE); test: as above; settings: rating scale 0-100, 14 days after application
Method in brief: as §1

[4] = tested on: large crabgrass (Digitaria sanguinalis, DIGSA); test: as above; settings: rating scale 0-100, 14 days after application
Method in brief: as §1

[5] = tested on: sicklepod (Cassia obtusifolia, CASOB); test: as above; settings: rating scale 0-100, 14 days after application
Method in brief: as §1

[6] = tested on: lambsquarters (Chenopodium album, CHEAL); test: as above; settings: rating scale 0-100, 14 days after application
Method in brief: as §1

[7] = tested on: johnsongrass (Sorghum halepense, SORHA); test: as above; settings: rating scale 0-100, 14 days after application
Method in brief: as §1

[8] = tested on: green foxtail (Setaria viridis, SETVI); test: as above; settings: rating scale 0-100, 14 days after application
Method in brief: as §1

[9] = tested on: velvetleaf (Abutilon theophrasti, ABUTH); test: Post-emerge test, greenhouse herbicide activity screening; settings: rating scale 0-100 (0 no damage, 100 complete death), 14 days after application
Method in brief: (§2)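 Rating: 0–100 visual injury, 14 DAA. Application: acetone, 187 l/ha, 15–1000 g ai/ha, flat-fan track sprayer with nozzle 40–45 cm above soil or canopy. Post-emerge runs used 0.25% v/v surfactant on 2–3 leaf plants.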

[10] = tested on: barnyardgrass (Echinochloa crus-galli, ECHCG); test: as above; settings: rating scale 0-100 (0 no damage, 100 complete death), 14 days after application
Method in brief: as §2

[11] = tested on: ivyleaf morningglory (Ipomoea hederacea, IPOHE); test: as above; settings: rating scale 0-100 (0 no damage, 100 complete death), 14 days after application
Method in brief: as §2

[12] = tested on: large crabgrass (Digitaria sanguinalis, DIGSA); test: as above; settings: rating scale 0-100 (0 no damage, 100 complete death), 14 days after application
Method in brief: as §2

[13] = tested on: sicklepod (Cassia obtusifolia, CASOB); test: as above; settings: rating scale 0-100 (0 no damage, 100 complete death), 14 days after application
Method in brief: as §2

[14] = tested on: lambsquarters (Chenopodium album, CHEAL); test: as above; settings: rating scale 0-100 (0 no damage, 100 complete death), 14 days after application
Method in brief: as §2

[15] = tested on: common ragweed (Ambrosia artemisizfolia L., AMBEL); test: as above; settings: rating scale 0-100 (0 no damage, 100 complete death), 14 days after application
Method in brief: as §2

[16] = tested on: johnsongrass (Sorghum halepense, SORHA); test: as above; settings: rating scale 0-100 (0 no damage, 100 complete death), 14 days after application
Method in brief: as §2

[17] = tested on: redroot pigweed (Amaranthus retroflexus, AMARE); test: as above; settings: rating scale 0-100 (0 no damage, 100 complete death), 14 days after application
Method in brief: as §2

[18] = tested on: green foxtail (Setaria viridis, SETVI); test: as above; settings: rating scale 0-100 (0 no damage, 100 complete death), 14 days after application
Method in brief: as §2

[19] = tested on: field corn (Zea mays L., var. Dekalb 535, CORN); test: Post-emerge test, crop safety; settings: rating scale 0-100 (0 no damage, 100 complete death), 14 days after application
Method in brief: as §1

[20] = tested on: upland rice (Oryza sp., var. Tebonnet, RICE); test: Post-emerge test, crop safety; settings: rating scale 0-100 (0 no damage, 100 complete death), 14 days after application
Method in brief: as §1

[21] = tested on: redroot pigweed (Amaranthus retroflexus, AMARE); test: Pre-emerge test, greenhouse herbicide activity screening; settings: rating scale 0-100, 14 days after application
Method in brief: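 Herbicidal damage is scored 0 (none) to 100 (complete plant death) two weeks after a simulated field spray. Rates span 15–1000 g ai/ha, delivered in acetone at 187 l/ha. For post-emergence treatments, plants have 2–3 leaves and the spray carries 0.25% v/v non-ionic surfactant.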

[22] = tested on: field corn (Zea mays L., var. Dekalb 535, CORN); test: Pre-emerge test, crop safety; settings: rating scale 0-100, 14 days after application
Method in brief: (§3)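 Visual ratings on a 0-100 scale (0 no damage, 100 all plants dead) were taken at 14 days after treatment. Rates of 15-1000 g ai/ha in acetone, 187 l/ha, were sprayed onto soil one day after planting (pre-emerge) or onto 2-3 leaf plants with 0.25% v/v surfactant (post-emerge).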

[23] = tested on: upland rice (Oryza sp., var. Tebonnet, RICE); test: Pre-emerge test, crop safety; settings: rating scale 0-100, 14 days after application
Method in brief: as §3

## CCOCCOC(=O)C(Cl)Cc1c(OC)c(Cl)cc(F)c1-n1c(=O)cc(C(F)(F)F)n(C)c1=O (stereo not shown) [14-26]
[1]; 63 g ai/ha
  Pre-emerge herbicidal activity, phytotoxicity rating ABUTH: 80
[1]; 250 g ai/ha
  Pre-emerge herbicidal activity, phytotoxicity rating ABUTH: 100
[2]; 63 g ai/ha
  Pre-emerge herbicidal activity, phytotoxicity rating ECHCG: 0
[2]; 250 g ai/ha
  Pre-emerge herbicidal activity, phytotoxicity rating ECHCG: 95
[3]; 63 g ai/ha
  Pre-emerge herbicidal activity, phytotoxicity rating IPOHE: 0
[3]; 250 g ai/ha
  Pre-emerge herbicidal activity, phytotoxicity rating IPOHE: 0
[4]; 63 g ai/ha
  Pre-emerge herbicidal activity, phytotoxicity rating DIGSA: 50
[4]; 250 g ai/ha
  Pre-emerge herbicidal activity, phytotoxicity rating DIGSA: 95
[5]; 63 g ai/ha
  Pre-emerge herbicidal activity, phytotoxicity rating CASOB: 0
[5]; 250 g ai/ha
  Pre-emerge herbicidal activity, phytotoxicity rating CASOB: 20
[6]; 63 g ai/ha
  Pre-emerge herbicidal activity, phytotoxicity rating CHEAL: 70
[6]; 250 g ai/ha
  Pre-emerge herbicidal activity, phytotoxicity rating CHEAL: 100
[7]; 63 g ai/ha
  Pre-emerge herbicidal activity, phytotoxicity rating SORHA: 0
[7]; 250 g ai/ha
  Pre-emerge herbicidal activity, phytotoxicity rating SORHA: 70
[8]; 63 g ai/ha
  Pre-emerge herbicidal activity, phytotoxicity rating SETVI: 0
[8]; 250 g ai/ha
  Pre-emerge herbicidal activity, phytotoxicity rating SETVI: 99
[9]; Rate 63 g ai/ha
  Post-emerge Herbicidal Activity, phytotoxicity rating ABUTH: 70
[9]; Rate 250 g ai/ha
  Post-emerge Herbicidal Activity, phytotoxicity rating ABUTH: 100
[10]; Rate 63 g ai/ha
  Post-emerge Herbicidal Activity, phytotoxicity rating ECHCG: 100
[10]; Rate 250 g ai/ha
  Post-emerge Herbicidal Activity, phytotoxicity rating ECHCG: 100
[11]; Rate 63 g ai/ha
  Post-emerge Herbicidal Activity, phytotoxicity rating IPOHE: 20
[11]; Rate 250 g ai/ha
  Post-emerge Herbicidal Activity, phytotoxicity rating IPOHE: 100
[12]; Rate 63 g ai/ha
  Post-emerge Herbicidal Activity, phytotoxicity rating DIGSA: 100
[12]; Rate 250 g ai/ha
  Post-emerge Herbicidal Activity, phytotoxicity rating DIGSA: 100
[13]; Rate 63 g ai/ha
  Post-emerge Herbicidal Activity, phytotoxicity rating CASOB: 50
[13]; Rate 250 g ai/ha
  Post-emerge Herbicidal Activity, phytotoxicity rating CASOB: 90
[14]; Rate 63 g ai/ha
  Post-emerge Herbicidal Activity, phytotoxicity rating CHEAL: 60
[14]; Rate 250 g ai/ha
  Post-emerge Herbicidal Activity, phytotoxicity rating CHEAL: 100
[15]; Rate 63 g ai/ha
  Post-emerge Herbicidal Activity, phytotoxicity rating AMBEL: 100
[15]; Rate 250 g ai/ha
  Post-emerge Herbicidal Activity, phytotoxicity rating AMBEL: 100
[16]; Rate 63 g ai/ha
  Post-emerge Herbicidal Activity, phytotoxicity rating SORHA: 30
[16]; Rate 250 g ai/ha
  Post-emerge Herbicidal Activity, phytotoxicity rating SORHA: 70
[17]; Rate 63 g ai/ha
  Post-emerge Herbicidal Activity, phytotoxicity rating AMARE: 90
[17]; Rate 250 g ai/ha
  Post-emerge Herbicidal Activity, phytotoxicity rating AMARE: 100
[18]; Rate 63 g ai/ha
  Post-emerge Herbicidal Activity, phytotoxicity rating SETVI: 0
[18]; Rate 250 g ai/ha
  Post-emerge Herbicidal Activity, phytotoxicity rating SETVI: 0
[19]; Rate 63 g ai/ha
  Post-emerge phytotoxicity rating CORN (crop damage): 40
[19]; Rate 250 g ai/ha
  Post-emerge phytotoxicity rating CORN (crop damage): 100
[20]; Rate 63 g ai/ha
  Post-emerge phytotoxicity rating RICE (crop damage): 10
[20]; Rate 250 g ai/ha
  Post-emerge phytotoxicity rating RICE (crop damage): 10
[21]; 63 g ai/ha
  Pre-emerge herbicidal activity, phytotoxicity rating AMARE: 100
[21]; 250 g ai/ha
  Pre-emerge herbicidal activity, phytotoxicity rating AMARE: 100
[22]; 63 g ai/ha
  Pre-emerge phytotoxicity rating, crop damage CORN: 0
[22]; 250 g ai/ha
  Pre-emerge phytotoxicity rating, crop damage CORN: 50
[23]; 63 g ai/ha
  Pre-emerge phytotoxicity rating, crop damage RICE: 0
[23]; 250 g ai/ha
  Pre-emerge phytotoxicity rating, crop damage RICE: 80

Source: US6355799B1, “Substituted benzene compounds, process for their preparation, and herbicidal and defoliant compositions containing them” (ISK Americas Incorporated, priority 1997, dated 2002)
